According to patent US11447466B2, “Substituted indole compounds useful as inhibitors of TLR7/8/9” (BRISTOL-MYERS SQUIBB COMPANY, priority 2017, dated 2022):

Legend:
Type in all cases: cell-based
[1] = target: T1, human TLR7 (Homo sapiens, UniProt Q9NYK1); experiment: TLR7 inhibition reporter assay (HEK-Blue SEAP reporter, gardiquimod stimulation); details: HEK-Blue cells overexpressing human TLR7, SEAP reporter, gardiquimod 7.5 μM, 22 hour incubation
T1 construct: host or cells: HEK-Blue cells
T1 sequence (Q9NYK1 27-1049): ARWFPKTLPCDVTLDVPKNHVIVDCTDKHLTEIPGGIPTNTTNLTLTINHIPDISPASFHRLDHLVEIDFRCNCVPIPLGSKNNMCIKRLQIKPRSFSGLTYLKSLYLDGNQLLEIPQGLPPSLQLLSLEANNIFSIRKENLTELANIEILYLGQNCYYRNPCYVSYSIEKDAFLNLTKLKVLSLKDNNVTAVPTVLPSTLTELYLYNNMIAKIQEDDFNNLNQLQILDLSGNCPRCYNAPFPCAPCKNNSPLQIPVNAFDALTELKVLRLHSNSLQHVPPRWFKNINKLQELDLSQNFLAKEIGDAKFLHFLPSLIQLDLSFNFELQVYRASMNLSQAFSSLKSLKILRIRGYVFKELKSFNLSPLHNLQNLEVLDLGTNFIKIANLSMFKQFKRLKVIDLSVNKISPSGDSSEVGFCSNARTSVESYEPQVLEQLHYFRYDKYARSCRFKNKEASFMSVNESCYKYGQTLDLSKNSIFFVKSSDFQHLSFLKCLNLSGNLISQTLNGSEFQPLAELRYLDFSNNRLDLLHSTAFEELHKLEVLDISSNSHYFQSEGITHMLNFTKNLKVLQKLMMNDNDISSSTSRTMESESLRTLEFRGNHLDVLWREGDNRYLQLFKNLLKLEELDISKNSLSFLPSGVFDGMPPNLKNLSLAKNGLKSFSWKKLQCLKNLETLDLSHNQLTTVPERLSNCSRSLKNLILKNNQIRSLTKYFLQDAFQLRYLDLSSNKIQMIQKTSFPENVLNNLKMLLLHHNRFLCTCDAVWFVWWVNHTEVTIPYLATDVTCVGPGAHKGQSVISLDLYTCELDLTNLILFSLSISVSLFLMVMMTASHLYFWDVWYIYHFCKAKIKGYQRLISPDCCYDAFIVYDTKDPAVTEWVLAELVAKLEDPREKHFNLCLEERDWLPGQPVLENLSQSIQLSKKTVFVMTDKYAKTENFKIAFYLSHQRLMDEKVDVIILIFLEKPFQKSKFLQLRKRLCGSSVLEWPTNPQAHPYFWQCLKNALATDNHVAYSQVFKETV
Procedure, shortened: (§1)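 Dose–response from 0.05 nM to 50 μM was run in HEK-Blue human TLR7, TLR8 and TLR9 reporter cells. After 30 min at room temperature with compound, ligand was added (TLR7 gardiquimod 7.5 μM; TLR8 R848 15.9 μM; TLR9 ODN2006 5 nM) and SEAP measured next day, at 22 h.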

[2] = target: T2, human TLR8 (Homo sapiens, UniProt Q9NR97); experiment: TLR8 inhibition reporter assay (HEK-Blue SEAP reporter, R848 stimulation); details: HEK-Blue cells overexpressing human TLR8, SEAP reporter, R848 15.9 μM, 22 hour incubation
T2 construct: host or cells: HEK-Blue cells
T2 sequence (Q9NR97 27-1041): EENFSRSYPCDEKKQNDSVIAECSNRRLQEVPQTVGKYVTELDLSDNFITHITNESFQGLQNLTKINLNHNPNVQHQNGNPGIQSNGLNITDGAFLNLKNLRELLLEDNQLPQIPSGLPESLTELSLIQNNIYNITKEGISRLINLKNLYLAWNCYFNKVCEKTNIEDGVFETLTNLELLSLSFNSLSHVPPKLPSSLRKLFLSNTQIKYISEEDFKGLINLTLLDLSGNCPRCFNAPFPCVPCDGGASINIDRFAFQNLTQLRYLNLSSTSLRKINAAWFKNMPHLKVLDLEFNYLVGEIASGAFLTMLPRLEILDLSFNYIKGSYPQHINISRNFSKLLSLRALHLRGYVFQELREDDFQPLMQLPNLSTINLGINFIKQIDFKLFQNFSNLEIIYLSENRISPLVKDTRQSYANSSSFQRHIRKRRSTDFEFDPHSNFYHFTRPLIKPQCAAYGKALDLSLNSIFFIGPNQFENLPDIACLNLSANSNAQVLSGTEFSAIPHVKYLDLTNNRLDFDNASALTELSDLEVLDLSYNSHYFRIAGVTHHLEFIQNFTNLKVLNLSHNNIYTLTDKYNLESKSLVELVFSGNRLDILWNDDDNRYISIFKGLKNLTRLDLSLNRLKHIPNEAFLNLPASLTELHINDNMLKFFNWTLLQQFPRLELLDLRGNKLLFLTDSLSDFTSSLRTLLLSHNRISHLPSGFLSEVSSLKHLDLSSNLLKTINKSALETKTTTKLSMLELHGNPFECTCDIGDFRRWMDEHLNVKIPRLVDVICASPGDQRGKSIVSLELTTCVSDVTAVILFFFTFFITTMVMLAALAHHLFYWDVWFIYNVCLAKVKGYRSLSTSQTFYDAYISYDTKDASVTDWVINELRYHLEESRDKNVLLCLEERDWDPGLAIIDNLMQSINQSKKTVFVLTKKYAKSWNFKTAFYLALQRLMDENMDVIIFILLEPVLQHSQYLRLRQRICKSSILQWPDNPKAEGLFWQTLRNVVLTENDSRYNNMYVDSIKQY
Procedure, shortened: as §1

[3] = target: T3, human TLR9 (Homo sapiens, UniProt Q9NR96); experiment: TLR9 inhibition reporter assay (HEK-Blue SEAP reporter, ODN2006 stimulation); details: HEK-Blue cells overexpressing human TLR9, SEAP reporter, ODN2006 5 nM, 22 hour incubation
T3 construct: host or cells: HEK-Blue cells
T3 sequence (Q9NR96 26-1032): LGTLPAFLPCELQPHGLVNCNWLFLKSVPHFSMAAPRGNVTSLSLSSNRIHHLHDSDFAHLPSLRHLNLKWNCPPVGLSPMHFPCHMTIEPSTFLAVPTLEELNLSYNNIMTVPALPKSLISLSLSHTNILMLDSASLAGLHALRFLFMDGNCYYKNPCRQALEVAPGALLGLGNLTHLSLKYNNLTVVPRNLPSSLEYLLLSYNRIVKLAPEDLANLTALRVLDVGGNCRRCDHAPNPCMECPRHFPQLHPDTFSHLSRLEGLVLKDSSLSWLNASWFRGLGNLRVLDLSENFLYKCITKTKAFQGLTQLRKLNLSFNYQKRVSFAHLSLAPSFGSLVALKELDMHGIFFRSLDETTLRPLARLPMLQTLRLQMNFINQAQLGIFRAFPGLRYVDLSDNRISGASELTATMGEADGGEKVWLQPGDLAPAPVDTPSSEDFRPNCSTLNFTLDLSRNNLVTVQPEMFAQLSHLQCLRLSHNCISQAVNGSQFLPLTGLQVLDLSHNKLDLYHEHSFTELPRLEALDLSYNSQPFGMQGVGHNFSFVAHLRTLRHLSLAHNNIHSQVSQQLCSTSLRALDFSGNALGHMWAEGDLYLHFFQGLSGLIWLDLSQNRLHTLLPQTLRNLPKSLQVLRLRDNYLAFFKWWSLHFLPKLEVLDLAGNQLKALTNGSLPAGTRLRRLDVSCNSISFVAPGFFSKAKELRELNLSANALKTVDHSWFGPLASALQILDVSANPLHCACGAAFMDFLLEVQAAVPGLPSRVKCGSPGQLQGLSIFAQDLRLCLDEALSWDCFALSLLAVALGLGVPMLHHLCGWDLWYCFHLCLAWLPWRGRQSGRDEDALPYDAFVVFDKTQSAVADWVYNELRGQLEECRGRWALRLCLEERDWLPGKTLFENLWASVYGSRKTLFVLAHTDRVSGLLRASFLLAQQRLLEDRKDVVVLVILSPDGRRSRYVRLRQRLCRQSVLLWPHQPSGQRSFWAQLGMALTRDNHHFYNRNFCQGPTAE
Procedure, shortened: as §1

SMILES	IC50 [1]	IC50 [2]	IC50 [3]
COc1ncccc1-c1cc(-c2[nH]c3ccc(C4CCNCC4)cc3c2C(C)C)cn(C)c1=O [Example 57, 5-(3-isopropyl-5-(piperidin-4-yl)-1H-indol-2-yl)-2′-methoxy-1-methyl[3,3′-bipyridin]-2(1H)-one]	68.4 nM	81.9 nM	1360 nM
CNC(=O)c1cccc(-c2cc(-c3[nH]c4ccc(C5CCNCC5)cc4c3C(C)C)cn(C)c2=O)c1 [Example 59, 3-(5-(3-isopropyl-5-(piperidin-4-yl)-1H-indol-2-yl)-1-methyl-2-oxo-1,2-dihydropyridin-3-yl)-N-methylbenzamide]	46.6 nM	270 nM	5850 nM
CC(=O)Nc1cccc(-c2cc(-c3[nH]c4ccc(C5CCNCC5)cc4c3C(C)C)cn(C)c2=O)c1 [Example 60, N-(3-(5-(3-isopropyl-5-(piperidin-4-yl)-1H-indol-2-yl)-1-methyl-2-oxo-1,2-dihydropyridin-3-yl)phenyl)acetamide]	90.3 nM	211 nM	3060 nM
CC(C)c1c(-c2cc(CCC(C)(C)C)c(=O)n(C)c2)[nH]c2ccc(C3CCNCC3)cc12 [Example 61, 3-(3,3-dimethylbutyl)-5-(3-isopropyl-5-(piperidin-4-yl)-1H-indol-2-yl)-1-methylpyridin-2(1H)-one]	2190 nM	2280 nM	2080 nM
CCCNC(=O)c1cc(-c2[nH]c3ccc(C4CCNCC4)cc3c2C(C)C)cn(C)c1=O [Example 64, 5-(3-isopropyl-5-(piperidin-4-yl)-1H-indol-2-yl)-1-methyl-2-oxo-N-propyl-1,2-dihydropyridine-3-carboxamide]	480 nM	1080 nM	7380 nM
Cc1c(-c2[nH]c3ccc(C4CCNCC4)cc3c2C(C)C)cn(C)c(=O)c1-c1cccnc1 [Example 65, 5-(3-isopropyl-5-(piperidin-4-yl)-1H-indol-2-yl)-1,4-dimethyl-[3,3′-bipyridin]-2(1H)-one]	976 nM	75.1 nM	3100 nM
CC(C)c1c(-c2cc(C(=O)N3CCCC3)c(=O)n(C)c2)[nH]c2ccc(C3CCNCC3)cc12 [Example 69, 5-(3-isopropyl-5-(piperidin-4-yl)-1H-indol-2-yl)-1-methyl-3-(pyrrolidine-1-carbonyl) pyridin-2(1H)-one]	333 nM	180 nM	≥ 50000 nM

The next compounds have a lower IC50 [1] than those just listed; values first:

IC50 [1]	IC50 [2]	IC50 [3]	SMILES
13.7 nM	49 nM	408 nM	CC(C)c1c(-c2cc(-c3cccc(C#N)c3)c(=O)n(C)c2)[nH]c2ccc(C3CCNCC3)cc12 [Example 56, 3-(5-(3-isopropyl-5-(piperidin-4-yl)-1H-indol-2-yl)-1-methyl-2-oxo-1,2-dihydropyridin-3-yl)benzonitrile]
5.4 nM	222 nM	3480 nM	CC(C)c1c(-c2cc(-c3cccc(C(N)=O)c3)c(=O)n(C)c2)[nH]c2ccc(C3CCNCC3)cc12 [Example 58, 3-(5-(3-isopropyl-5-(piperidin-4-yl)-1H-indol-2-yl)-1-methyl-2-oxo-1,2-dihydropyridin-3-yl)benzamide]
12.6 nM	70.5 nM	764 nM	CC(C)c1cc(-c2[nH]c3ccc(C4CCNCC4)cc3c2C(C)C)cn(C)c1=O [Example 66, 3-isopropyl-5-(3-isopropyl-5-(piperidin-4-yl)-1H-indol-2-yl)-1-methylpyridin-2(1H)-one]
4.3 nM	5.9 nM	919 nM	CCc1cc(-c2[nH]c3ccc(C4CCNCC4)cc3c2C(C)C)cn(C)c1=O [Example 67, 3-ethyl-5-(3-isopropyl-5-(piperidin-4-yl)-1H-indol-2-yl)-1-methylpyridin-2(1H)-one]
8.5 nM	9.8 nM	5360 nM	CCc1cc(-c2[nH]c3ccc(C4CCNCC4)cc3c2C(C)C)cn(CC)c1=O [Example 68, 1,3-diethyl-5-(3-isopropyl-5-(piperidin-4-yl)-1H-indol-2-yl)pyridin-2(1H)-one]
